According to paper PMC8544245 (Journal of medicinal chemistry, 2020):
“And” between values parts separate entries of the source, which are not always exact repeats. Equal values may be shown once. Read-outs that look alike come from different tables or passages of the source. Non-standard residues stand in square brackets, D forms with d. Residues, ends and D or L forms follow the SMILES beside them. *: point of attachment. d(hPhe) = N[C@H](CCc1ccccc1)C(=O)O; Bn = c1ccc(C*)cc1; NHOH = ON*

Columns and labels:
[1] = biological target: T1, hMMP-12 (Homo sapiens, UniProt P39900); conditions: read-out: IC50 for hMMP-12 inhibition; dose response (Figure 2B); cited from earlier work
T1 sequence (P39900 106-263): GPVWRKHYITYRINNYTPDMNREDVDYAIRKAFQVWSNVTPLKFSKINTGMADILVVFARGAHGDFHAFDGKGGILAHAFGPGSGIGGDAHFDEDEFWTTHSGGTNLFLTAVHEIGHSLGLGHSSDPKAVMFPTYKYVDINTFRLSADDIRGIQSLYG

[2] = biological target: T2, MMP-1 (Homo sapiens, UniProt P03956); conditions: even at 1 μM; cited from earlier work
T2 sequence (P03956 100-269 limits assumed): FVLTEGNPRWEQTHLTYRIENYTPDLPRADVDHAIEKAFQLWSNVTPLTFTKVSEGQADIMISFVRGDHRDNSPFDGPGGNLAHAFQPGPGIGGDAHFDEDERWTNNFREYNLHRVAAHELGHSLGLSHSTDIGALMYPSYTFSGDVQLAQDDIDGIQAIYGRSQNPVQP

[3] = biological target: T3, MMP-3 (Homo sapiens, UniProt P08254); conditions: at 55 nM; cited from earlier work
T3 sequence (P08254 100-272 limits assumed): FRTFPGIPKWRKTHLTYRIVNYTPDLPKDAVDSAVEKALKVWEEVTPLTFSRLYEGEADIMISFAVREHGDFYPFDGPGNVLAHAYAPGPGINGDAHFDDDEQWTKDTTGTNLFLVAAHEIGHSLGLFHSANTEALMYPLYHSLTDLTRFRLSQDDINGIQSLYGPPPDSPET

[4] = biological target: T4, MMP-9 (Homo sapiens, UniProt P14780); conditions: even at 1 μM; cited from earlier work
T4 sequence (P14780 107-444 limits assumed): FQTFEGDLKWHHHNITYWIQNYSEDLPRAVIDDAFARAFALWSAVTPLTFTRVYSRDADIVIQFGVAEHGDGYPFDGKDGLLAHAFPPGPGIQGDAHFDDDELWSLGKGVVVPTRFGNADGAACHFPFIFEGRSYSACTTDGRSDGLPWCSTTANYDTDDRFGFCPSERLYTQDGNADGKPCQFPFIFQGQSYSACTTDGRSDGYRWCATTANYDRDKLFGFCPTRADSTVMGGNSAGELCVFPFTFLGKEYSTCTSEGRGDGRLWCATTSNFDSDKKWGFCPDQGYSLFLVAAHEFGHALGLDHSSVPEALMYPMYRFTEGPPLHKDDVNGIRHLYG

[5] = biological target: T5, MMP-13 (Homo sapiens, UniProt P45452); conditions: even at 1 μM; cited from earlier work
[6] = biological target: T6, MMP-14 (Homo sapiens, UniProt P50281); conditions: even at 1 μM; cited from earlier work
[7] = system: elastase-induced emphysema (lung tissue destruction); experiment: Murine model of elastase-induced emphysema, mean linear intercept; assay type: in vivo, C57BL/6 mice; conditions: PPE intranasal, i.p. treatment once daily for 7 days from day 2, read at day 21
[8] = biological target: T3, MMP-3; experiment: SensoLyte 520 Fluorimetric Assay Kit selectivity assay, MMP-3; assay type: biochemical; conditions: agents tested at 25 nM or at 4 nM (Figure 5)
[9] = biological target: T1, hMMP-12; experiment: SensoLyte 520 MMP-12 Fluorimetric Assay Kit enzymatic inhibition assay; assay type: biochemical
[10] = biological target: T2, MMP-1; experiment: SensoLyte 520 Fluorimetric Assay Kit selectivity assay, MMP-1; assay type: biochemical; conditions: agents tested at 25 nM or at 4 nM (Figure 5)
[11] = biological target: T4, MMP-9; experiment: SensoLyte 520 Fluorimetric Assay Kit selectivity assay, MMP-9; assay type: biochemical; conditions: agents tested at 25 nM or at 4 nM (Figure 5)
[12] = biological target: T5, MMP-13; experiment: SensoLyte 520 Fluorimetric Assay Kit selectivity assay, MMP-13; assay type: biochemical; conditions: agents tested at 25 nM or at 4 nM (Figure 5)
[13] = biological target: T6, MMP-14; experiment: SensoLyte 520 Fluorimetric Assay Kit selectivity assay, MMP-14; assay type: biochemical; conditions: agents tested at 25 nM or at 4 nM (Figure 5)
[14] = assay type: in vivo; conditions: 30 mg/kg i.p., Balb-C mice; converted from ng/ml
[15] = Solubility in the dosing formulation; assay type: physicochemical; conditions: 10% DMSO, 40% PEG400, and 10% (2-hydroxypropyl)-Beta-cyclodextrin in PBS

## CC(=O)N[C@@H](COCc1ccccc1)C(=O)N[C@H](CCc1ccccc1)C(=O)N[C@H](Cc1ccccc1)C(=O)NO [compound 1] (Ac-Ser(Bn)-[d(hPhe)]-[dF]-{NHOH})
[1]
  IC50: ~30 nM and 29.7 nM
[2]
  inhibition of MMP-1: did not significantly inhibit
[3]
  inhibition of MMP-3: ~ 19%
[4]
  inhibition of MMP-9: did not significantly inhibit
[5]
  inhibition of MMP-13: did not significantly inhibit
[6]
  inhibition of MMP-14: did not significantly inhibit

## COC(=O)Nc1ccc2oc3cc(S(=O)(=O)N[C@H](C(=O)O)C(C)C)ccc3c2c1 [MMP408, (S)-2-(8-(methoxycarbonylamino)dibenzo[b,d]furan-3-sulfonamido)-3-methylbutanoic acid, reference compound]
[7]
  emphysema-like pathology (MLI) compared to PPE + vehicle-treated mice: significant decrease

## CNC(=O)[C@H](Cc1c[nH]c2ccccc12)NC(=O)[C@@H](CC(=O)NO)CC(C)C [GM6001, reference compound]
[8]
  inhibition of MMP-3: appreciable inhibition

## COc1ccc(CC[C@@H](NC(=O)[C@H](CCCc2ccccc2)NC(=O)CN2CCOCC2)C(=O)N[C@H](Cc2ccc(C)cc2)C(=O)NO)cc1 [compound 25]
[9]
  mode of hMMP-12 inhibition: competitive inhibitors
[10]
  inhibition of MMP-1: did not display significant inhibition
[8]
  inhibition of MMP-3: appreciable inhibition
[11]
  inhibition of MMP-9: did not display significant inhibition
[12]
  inhibition of MMP-13: did not display significant inhibition
[13]
  inhibition of MMP-14: did not display significant inhibition
[14]
  peak plasma drug concentration: ~ 580 nM
[15]
  solubility in formulation: soluble
[7]
  emphysema-like pathology (MLI) compared to PPE + vehicle-treated mice: significant decrease

## COc1ccc(CCC[C@H](NC(=O)CN2CCOCC2)C(=O)N[C@H](CCc2ccc(OC)cc2)C(=O)N[C@H](Cc2ccc(C)cc2)C(=O)NO)cc1 [compound 26]
[9]
  mode of hMMP-12 inhibition: competitive inhibitors
[10]
  inhibition of MMP-1: did not display significant inhibition
[8]
  inhibition of MMP-3: appreciable inhibition
[11]
  inhibition of MMP-9: did not display significant inhibition
[12]
  inhibition of MMP-13: did not display significant inhibition
[13]
  inhibition of MMP-14: did not display significant inhibition
[7]
  emphysema-like pathology (MLI) compared to PPE + vehicle-treated mice: significant decrease
